Source: patent US20260250318A1, “COMPOSITIONS AND METHODS FOR CROSSING THE BLOOD BRAIN BARRIER” (VOYAGER THERAPEUTICS, INC., priority 2022, published 2026)

Experiments:
brain [1] = assay: Matured TTM-001 and TTM-002 variants, NGS enrichment in mouse brain; assay type: in vivo, mice; conditions: relative to AAV9 control
[2] = system: brains, heart, liver, muscle, and DRG of the NHPs; assay: Maturation of TTM-001 and TTM-002 capsids, NGS enrichment in NHP tissues; assay type: in vivo; conditions: relative to AAV9 control
Method in brief: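 Variants carry mutations within and flanking the loop IV peptide insert: positions 450–466 were triplet-randomized, while positions 449–466 received low-frequency point mutations. The combined pool went into two NHPs, and each peptide was scored by NGS enrichment ratio against AAV9.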

[3] = system: brain, spinal cord, and DRG of the NHPs; assay: NGS fold enrichment of synthetic library (passage 3) in NHPs, first cross-species screen; assay type: in vivo, cynomolgus macaques (Macaca fascicularis); conditions: synthetic library passage 3, intravenous, RNA NGS, relative to wild-type AAV9
Method in brief: (§1)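 Passage-3 synthetic capsid library given intravenously […] to NHPs (2-4 years) and BALB/c or C57Bl/6 mice (n=3, 6-8 weeks). After e.g. 28 days, tissue RNA was RT-PCR amplified and NGS-sequenced; values are fold enrichment of each variant relative to wild-type AAV9.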

brain [4] = assay: NGS fold enrichment of synthetic library (passage 3) in BALB/c mice, first cross-species screen; assay type: in vivo; conditions: synthetic library passage 3, intravenous, RNA NGS, brain of BALB/c mice, relative to wild-type AAV9
Method in brief: as §1

brain [5] = assay: NGS fold enrichment of synthetic library (passage 3) in C57Bl/6 mice, first cross-species screen; assay type: in vivo; conditions: synthetic library passage 3, intravenous, RNA NGS, brain of C57Bl/6 mice, relative to wild-type AAV9
Method in brief: as §1

[6] = NGS fold-enrichment, brain of mice
[7] = NGS fold-enrichment, DRG of NHPs
[8] = NGS fold-enrichment, RNA, brain of NHPs
[9] = NGS fold-enrichment, heart of NHPs
[10] = NGS fold-enrichment, liver DNA of NHPs
[11] = NGS fold-enrichment, liver RNA of NHPs
[12] = NGS fold-enrichment, muscle of NHPs

EAINGSGSPHSKAQNQQT
Fold Enrichment relative to AAV9, Brain (Mouse) (brain [1]; mouse brain): 117.305 fold
Fold Enrichment relative to AAV9, Brain (NHP) ([2]; NGS fold-enrichment of matured AAV capsid variants, NHP brain, RNA): 50.243 fold
Fold Enrichment relative to AAV9, DRG (NHP) ([2]; NHP DRG): 0.629 fold
Fold Enrichment relative to AAV9, Heart (NHP) ([2]; NHP heart): 0.094 fold
Fold Enrichment relative to AAV9, Liver DNA (NHP) ([2]; NHP liver, DNA): 1.519 fold
Fold Enrichment relative to AAV9, Liver RNA (NHP) ([2]; NHP liver, RNA): 0.057 fold
Fold Enrichment relative to AAV9, Muscle (NHP) ([2]; NHP muscle): 0.000 fold

ETIKGSGSPHSKAQNQQT
Fold Enrichment relative to AAV9, Brain (Mouse) (brain [1]; [6]): 67.201 fold
Fold Enrichment relative to AAV9, DRG (NHP) [2, 7]: 0.000 fold
Fold Enrichment relative to AAV9, Brain (NHP) [2, 8]: 64.609 fold
Fold Enrichment relative to AAV9, Heart (NHP) [2, 9]: 0.000 fold
Fold Enrichment relative to AAV9, Liver DNA (NHP) [2, 10]: 0.024 fold
Fold Enrichment relative to AAV9, Liver RNA (NHP) [2, 11]: 0.000 fold
Fold Enrichment relative to AAV9, Muscle (NHP) [2, 12]: 0.144 fold

ETINGSGSPHSKAQNLQT
Fold Enrichment relative to AAV9, Brain (Mouse) (brain [1]; [6]): 107.216 fold
Fold Enrichment relative to AAV9, Brain (Mouse) (brain [1]; NGS fold-enrichment, mouse brain): 107.216 fold
Fold Enrichment relative to AAV9, Brain (NHP) ([2]; NGS fold-enrichment of RNA, NHP brain): 90.969 fold
Fold Enrichment relative to AAV9, DRG (NHP) [2, 7]: 0.221 fold
Fold Enrichment relative to AAV9, DRG (NHP) ([2]; NGS fold-enrichment, NHP DRG): 0.221 fold
Fold Enrichment relative to AAV9, Heart (NHP) ([2]; NGS fold-enrichment, NHP heart): 1.023 fold
Fold Enrichment relative to AAV9, Liver DNA (NHP) ([2]; NGS fold-enrichment, NHP liver DNA): 0.813 fold
Fold Enrichment relative to AAV9, Liver RNA (NHP) ([2]; NGS fold-enrichment, NHP liver RNA): 0.179 fold
Fold Enrichment relative to AAV9, Muscle (NHP) ([2]; NGS fold-enrichment, NHP muscle): 0.197 fold
Fold Enrichment relative to AAV9, Brain (NHP) [2, 8]: 90.969 fold
Fold Enrichment relative to AAV9, Heart (NHP) [2, 9]: 1.023 fold
Fold Enrichment relative to AAV9, Liver DNA (NHP) [2, 10]: 0.813 fold
Fold Enrichment relative to AAV9, Liver RNA (NHP) [2, 11]: 0.179 fold
Fold Enrichment relative to AAV9, Muscle (NHP) [2, 12]: 0.197 fold

GVHTHLPSGQNQQT
Fold enrichment over AAV9 in the brain of NHPs [3]: 1.952 fold
Fold enrichment over AAV9 in the spinal cord of NHPs [3]: 1.364 fold
Fold enrichment over AAV9 in the brain of Mice (BALB/c) (brain [4]): 0.796 fold
Fold enrichment over AAV9 in the brain of Mice (C57Bl/6) (brain [5]): 1.414 fold

GVIVLHGSGQNQQT
Fold enrichment over AAV9 in the brain of NHPs [3]: 1.682 fold
Fold enrichment over AAV9 in the spinal cord of NHPs [3]: 14.166 fold
Fold enrichment over AAV9 in the brain of Mice (BALB/c) (brain [4]): 1.098 fold
Fold enrichment over AAV9 in the brain of Mice (C57Bl/6) (brain [5]): 1.074 fold

GVKGVGHSGQNQQT
Fold enrichment over AAV9 in the brain of NHPs [3]: 1.096 fold
Fold enrichment over AAV9 in the spinal cord of NHPs [3]: 2.485 fold
Fold enrichment over AAV9 in the brain of Mice (BALB/c) (brain [4]): 0.783 fold
Fold enrichment over AAV9 in the brain of Mice (C57Bl/6) (brain [5]): 0.994 fold

GVSRGGPSGQNQQT
Fold enrichment over AAV9 in the brain of NHPs [3]: 1.028 fold
Fold enrichment over AAV9 in the spinal cord of NHPs [3]: 1.611 fold
Fold enrichment over AAV9 in the brain of Mice (BALB/c) (brain [4]): 0.591 fold
Fold enrichment over AAV9 in the brain of Mice (C57Bl/6) (brain [5]): 0.750 fold

GVVAAHNSGQNQQT
Fold enrichment over AAV9 in the brain of NHPs [3]: 2.202 fold
Fold enrichment over AAV9 in the spinal cord of NHPs [3]: 1.301 fold
Fold enrichment over AAV9 in the brain of Mice (BALB/c) (brain [4]): 1.336 fold
Fold enrichment over AAV9 in the brain of Mice (C57Bl/6) (brain [5]): 1.196 fold

GVVAHQPSGQNQQT
Fold enrichment over AAV9 in the brain of NHPs [3]: 2.103 fold
Fold enrichment over AAV9 in the spinal cord of NHPs [3]: 0.152 fold
Fold enrichment over AAV9 in the brain of Mice (BALB/c) (brain [4]): 2.267 fold
Fold enrichment over AAV9 in the brain of Mice (C57Bl/6) (brain [5]): 0.910 fold

GVVHITNSGQNQQT
Fold enrichment over AAV9 in the brain of NHPs [3]: 1.969 fold
Fold enrichment over AAV9 in the spinal cord of NHPs [3]: 0.504 fold
Fold enrichment over AAV9 in the brain of Mice (BALB/c) (brain [4]): 0.846 fold
Fold enrichment over AAV9 in the brain of Mice (C57Bl/6) (brain [5]): 0.794 fold

GVVRNHQSGQNQQT
Fold enrichment over AAV9 in the brain of NHPs [3]: 1.116 fold
Fold enrichment over AAV9 in the spinal cord of NHPs [3]: 5.801 fold
Fold enrichment over AAV9 in the brain of Mice (BALB/c) (brain [4]): 0.868 fold
Fold enrichment over AAV9 in the brain of Mice (C57Bl/6) (brain [5]): 0.899 fold
